Columns and labels:
Assay type in all cases: in vivo
[1] = test system: giant foxtail (Setaria faberii); test: Test A preemergence; conditions: Setaria faberi, pre-emergence, 240 h; for pest or weed control at 125 g/ha: 125 g ai/ha, Preemergence, visual injury rating after approximately 10 d, read-out: Foxtail, Giant plant response rating (0 to 100 scale, 0 is no effect, 100 is complete control); for pest or weed control at 500 g/ha: 500 g ai/ha, preemergence, visual injury rating about 10 d after treatment, 0 to 100 scale (0 no effect, 100 complete control), read-out: Foxtail, Giant plant response rating
Outline: (§1)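 Visual injury, scored on a 0–100 scale relative to untreated controls, was recorded about 10 d after application. Treatments were a preemergence soil spray over planted seeds or a postemergence spray on plants at the one- to two-leaf stage, 2 to 10 cm tall, all in loam soil–sand blend in the greenhouse.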

[2] = test system: Galium (catchweed bedstraw, Galium aparine); test: Test A postemergence; conditions: Galium, post-emergence, 240 h, postemergence, read-out: Galium plant response rating; for pest or weed control at 125 g/ha: 125 g ai/ha, visual injury on 0 to 100 scale (0 no effect, 100 complete control), approx. 10 d; for pest or weed control at 500 g/ha: 500 g ai/ha, 0 to 100 scale, 0 is no effect, 100 is complete control
Outline: as §1

[3] = test system: Kochia (Kochia scoparia); test: Test A postemergence; conditions: Bassia scoparia, post-emergence, 240 h, postemergence, read-out: Kochia plant response rating; for pest or weed control at 125 g/ha: 125 g ai/ha, visual injury on 0 to 100 scale (0 no effect, 100 complete control), approx. 10 d; for pest or weed control at 500 g/ha: 500 g ai/ha, 0 to 100 scale, 0 is no effect, 100 is complete control
Outline: as §1

[4] = test system: barnyardgrass (Echinochloa crus-galli); test: Test A postemergence; conditions: Echinochloa crus-galli, post-emergence, 240 h, postemergence, read-out: Barnyardgrass plant response rating; for pest or weed control at 125 g/ha: 125 g ai/ha, visual injury on 0 to 100 scale (0 no effect, 100 complete control), approx. 10 d; for pest or weed control at 500 g/ha: 500 g ai/ha, 0 to 100 scale, 0 is no effect, 100 is complete control
Outline: as §1

[5] = test system: blackgrass (Alopecurus myosuroides); test: Test A postemergence; conditions: Alopecurus myosuroides, post-emergence, 240 h, postemergence, read-out: Blackgrass plant response rating; for pest or weed control at 125 g/ha: 125 g ai/ha, visual injury on 0 to 100 scale (0 no effect, 100 complete control), approx. 10 d; for pest or weed control at 500 g/ha: 500 g ai/ha, 0 to 100 scale, 0 is no effect, 100 is complete control
Outline: as §1

[6] = test system: corn (Zea mays); test: Test A postemergence; conditions: Zea mays, post-emergence, 240 h, postemergence, read-out: Corn plant response rating; for plant injury at 125 g/ha: 125 g ai/ha, visual injury on 0 to 100 scale (0 no effect, 100 complete control), approx. 10 d; for plant injury at 500 g/ha: 500 g ai/ha, 0 to 100 scale, 0 is no effect, 100 is complete control
Outline: as §1

[7] = test system: giant foxtail (Setaria faberii); test: Test A postemergence; conditions: Setaria faberi, post-emergence, 240 h, postemergence, read-out: Foxtail, Giant plant response rating; for pest or weed control at 125 g/ha: 125 g ai/ha, visual injury on 0 to 100 scale (0 no effect, 100 complete control), approx. 10 d; for pest or weed control at 500 g/ha: 500 g ai/ha, 0 to 100 scale, 0 is no effect, 100 is complete control
Outline: as §1

[8] = test system: pigweed (Amaranthus retroflexus); test: Test A postemergence; conditions: Amaranthus retroflexus, post-emergence, 240 h, postemergence, read-out: Pigweed plant response rating; for pest or weed control at 125 g/ha: 125 g ai/ha, visual injury on 0 to 100 scale (0 no effect, 100 complete control), approx. 10 d; for pest or weed control at 500 g/ha: 500 g ai/ha, 0 to 100 scale, 0 is no effect, 100 is complete control
Outline: as §1

[9] = test system: ragweed (common ragweed, Ambrosia elatior); test: Test A postemergence; conditions: Ambrosia artemisiifolia, post-emergence, 240 h, postemergence, read-out: Ragweed plant response rating; for pest or weed control at 125 g/ha: 125 g ai/ha, visual injury on 0 to 100 scale (0 no effect, 100 complete control), approx. 10 d; for pest or weed control at 500 g/ha: 500 g ai/ha, 0 to 100 scale, 0 is no effect, 100 is complete control
Outline: as §1

[10] = test system: ryegrass, Italian (Italian ryegrass, Lolium multiflorum); test: Test A postemergence; conditions: Lolium multiflorum, post-emergence, 240 h, postemergence, read-out: Ryegrass, Italian plant response rating; for pest or weed control at 125 g/ha: 125 g ai/ha, visual injury on 0 to 100 scale (0 no effect, 100 complete control), approx. 10 d; for pest or weed control at 500 g/ha: 500 g ai/ha, 0 to 100 scale, 0 is no effect, 100 is complete control
Outline: as §1

[11] = test system: wheat (Triticum aestivum); test: Test A postemergence; conditions: Triticum aestivum, post-emergence, 240 h, postemergence, read-out: Wheat plant response rating; for plant injury at 125 g/ha: 125 g ai/ha, visual injury on 0 to 100 scale (0 no effect, 100 complete control), approx. 10 d; for plant injury at 500 g/ha: 500 g ai/ha, 0 to 100 scale, 0 is no effect, 100 is complete control
Outline: as §1

[12] = test system: barnyardgrass (Echinochloa crus-galli); test: Test B flooded paddy test; conditions: Echinochloa crus-galli, 250 g ai/ha, Flood; 0 to 100 scale where 0 is no effect and 100 is complete control; read-out: Barnyardgrass plant response rating
Outline: (§2)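 Visual ratings (0 none to 100 complete control) are relative to untreated plants, taken 13–15 d after treatment in a greenhouse. Test material went straight into floodwater standing 3 cm above the soil, kept constant, on plants at the 2-leaf stage.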

[13] = test system: ducksalad (Heteranthera limosa); test: Test B flooded paddy test; conditions: Heteranthera limosa, 250 g ai/ha, Flood; 0 to 100 scale where 0 is no effect and 100 is complete control; read-out: Ducksalad plant response rating
Outline: as §2

[14] = test system: rice (Oryra sativa); test: Test B flooded paddy test; conditions: Oryza sativa, 250 g ai/ha, Flood; 0 to 100 scale where 0 is no effect and 100 is complete control; read-out: Rice plant response rating
Outline: as §2

[15] = test system: sedge, umbrella (small-flower umbrella sedge, Cyperus difformis); test: Test B flooded paddy test; conditions: Cyperus difformis, 250 g ai/ha, Flood; 0 to 100 scale where 0 is no effect and 100 is complete control; read-out: Sedge, Umbrella plant response rating
Outline: as §2

Row | Compound | pest or weed control at 125 g/ha [1] [%] | pest or weed control at 500 g/ha [1] [%] | pest or weed control at 125 g/ha [2] [%] | pest or weed control at 500 g/ha [2] [%] | pest or weed control at 125 g/ha [3] [%] | pest or weed control at 500 g/ha [3] [%] | pest or weed control at 125 g/ha [4] [%] | pest or weed control at 500 g/ha [4] [%] | pest or weed control at 125 g/ha [5] [%] | pest or weed control at 500 g/ha [5] [%] | plant injury at 125 g/ha [6] [%] | plant injury at 500 g/ha [6] [%] | pest or weed control at 125 g/ha [7] [%] | pest or weed control at 500 g/ha [7] [%] | pest or weed control at 125 g/ha [8] [%] | pest or weed control at 500 g/ha [8] [%] | pest or weed control at 125 g/ha [9] [%] | pest or weed control at 500 g/ha [9] [%] | pest or weed control at 125 g/ha [10] [%] | pest or weed control at 500 g/ha [10] [%] | further results
1 | CSc1ccccc1NC(=O)C1C(=O)NCC1C=C(C)C (stereo not drawn) [Compound 1055] | 0 | 0 | 0 | 0 | 0 | 0 | 0 | 0 | 0 | 0 | 0 | 0 | 0 | 0 | 0 | 0 | 0 | 0 | 0 | 0 | plant injury at 125 g/ha [11]: 0%; plant injury at 500 g/ha [11]: 0%; pest or weed control at 250 g/ha [12]: 0%; pest or weed control at 250 g/ha [13]: 30%; pest or weed control at 250 g/ha [14]: 0%; pest or weed control at 250 g/ha [15]: 0%
2 | CN1CC(c2ccccc2OC(F)(F)C(F)F)C(C(=O)Nc2cccc(F)c2F)C1=O (stereo not drawn) [Compound 1056] | 60 | 90 | 0 | 0 | 0 | 0 | 20 | 50 | 0 | 0 | 0 | 0 | 0 | 20 | 0 | 0 | 0 | 0 | 0 | 0 | plant injury at 125 g/ha [11]: 0%; plant injury at 500 g/ha [11]: 0%; pest or weed control at 250 g/ha [12]: 0%; pest or weed control at 250 g/ha [13]: 0%; pest or weed control at 250 g/ha [14]: 20%; pest or weed control at 250 g/ha [15]: 0%
3 | CC(C)=CC1CNC(=O)C1C(=O)Nc1ccccc1S(C)(=O)=O (stereo not drawn) [Compound 1057] | 0 | 0 | 0 | 0 | 0 | 0 | 0 | 0 | 0 | 0 | 0 | 0 | 0 | 0 | 0 | 0 | 0 | 0 | 0 | 0 | plant injury at 125 g/ha [11]: 0%; plant injury at 500 g/ha [11]: 0%; pest or weed control at 250 g/ha [12]: 30%; pest or weed control at 250 g/ha [13]: 85%; pest or weed control at 250 g/ha [14]: 0%; pest or weed control at 250 g/ha [15]: 0%
